Data published in patent US20100112048A1, “Dosage Regimen and Medicament For Reducing Risk of Onset or Progression of Dementia by Administration of Specific Vitamins and Nsaid” (priority 2006, published 2010).

Legend:
[1] = test system: mortality of 39,876 healthy participants; details: cited from earlier work
mortality of the elderly = details: placebo-controlled trial in the elderly; cited from earlier work
[2] = test system: mortality of elderly Cache County participants; details: in vivo
Procedure: Also, to examine the effect of these constituents on differential mortality, logistic regression was used to estimate the relative risk of mortality over the course of follow-up among the 5 user groups. These analyses, were controlled for age, sex, education, and APOE genotype status. All analyses were performed using SAS statistical software package version 8.0.
Also, an analysis was effected to assess whether there was an increased risk of mortality among any of the user groups that might potentially bias the observed associations with cognitive performance over time.

## vitamin E
[1]; healthy women
  cardiovascular mortality (in words): trend toward decreased cardiovascular mortality
[1]; monitored for over 10 years
  mortality vs placebo (in words): no significant difference in mortality
Mortality of the elderly
  mortality associated with using vitamin E (in words): did not note any increased mortality
[2]
  harm of vitamin E, subgroup analysis (in words): may only be harmful among elderly with prior cardiovascular disease
